Experimental data taken from publication PMC5608804, “Stepwise Evolution Improves Identification of Diverse Peptides Binding to a Protein Target” (Scientific Reports, 2017).

Molecular target: T1, streptavidin (Streptomyces avidinii, UniProt P22629)
T1 construct: purchased GE Healthcare (Little Chalfont, UK)
Assay: Cy5-streptavidin binding on HotSpot discovery array, 5-mer L-peptide library
Conditions: 5-mer L-peptide library array, Cy5-streptavidin; from average of three arrays
Outline: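 Array of 2,476,099 5-mer peptides (19 amino acids, no cysteine) with Gly-Ser linkers, probed overnight at 4 °C with 0.5 µg/ml Cy5-streptavidin in Tris pH 7.4 buffer containing casein or BSA plus Tween-20. Cy5 fluorescence read at 635 nm; peptides selected by signal-to-background >4 across three arrays.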

T1 sequence (P22629 25-183): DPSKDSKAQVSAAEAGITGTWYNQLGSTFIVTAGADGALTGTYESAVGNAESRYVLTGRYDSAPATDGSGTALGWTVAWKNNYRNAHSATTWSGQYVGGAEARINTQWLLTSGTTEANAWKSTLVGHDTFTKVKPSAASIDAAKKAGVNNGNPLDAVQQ

In order of rising “S/B (signal to background ratio)” value:
1. KMHPM  22.0
2. FHPQW  22.2
3. MEHPM  23.4
4. IVHPM  23.5
5. FHPMM  24.3
6. PIHPM  24.8
7. RMHPM  37.9
8. LAQFH [L-amino acid 5-mer array peptide]  39.7
9. HHPMS  40.6
10. PHPQY  41.4
11. SHPQQ  41.4
12. WHPMM  43.4
13. RHPQQ  43.6
14. SQHPM  50.2
15. MHPQV  55.8
16. NHPQG  118.8
17. RHPQG  124.2
18. GHPQF  125.7
19. IHPQN  128.3
20. NTHPQ  133.1
21. IAHPQ  136.2
22. MAHPQ  140.8
23. THPQA  140.8
24. SPHPQ  145.4
25. HPQGP  162.1
26. IWHPQ  174.8
27. HPHPQ  185.1

Same assay, conditions: 5-mer L-peptide library array, Cy5-streptavidin; from the average of three arrays

In order of falling “S/B (signal to background ratio)” value:
1. TLHPQ  111.0
2. PHPQV  97.2
3. GWHPM  97.0
4. RHPQV  94.3
5. SDHPQ  92.6
6. HPQFT  92.5
7. HPQGA  92.1
8. FRHPM  89.2
9. HYHPM  88.3
10. NHPQV  81.6
11. HPQGQ  73.5
12. IGHPM  72.3
13. QWHPM  72.2
14. THPQS  70.8
15. EHPQA  70.0
16. HHHPM  67.1
17. HPQYN  66.1
18. LTHPM  64.2
19. VHPQV  61.3
20. HPQGW  60.3
21. FHPMG  59.2

Same assay, conditions: 5-mer L-peptide library, from the average of three arrays

In order of rising “S/B (signal to background ratio)” value:
1. PIPDW [L-amino acid 5-mer array peptide]  4.1
2. FLGHP  4.2
3. HPMNY  4.6
4. MPWRY [L-amino acid 5-mer array peptide]  5.0

Same assay, conditions: average of three arrays, L-peptide 5-mer library

In order of falling “S/B (signal to background ratio)” value:
1. LAQFH [L-amino acid 5-mer array peptide]  39.7
2. MPWRY [L-amino acid 5-mer array peptide]  5.0
3. PIPDW [L-amino acid 5-mer array peptide]  4.1

Same assay, conditions: signal to background ratio; 5-mer L-peptide library array, Cy5-streptavidin

In order of rising S/B:
1. PQPDW  5.2
2. HPMMA  5.3
3. HPQPF  5.7
4. HPMNE  5.7
5. KHPMY  6.0
6. HPMFW  6.5
7. LHPMN  9.7
8. HPQAL  10.3
9. HPQIN  12.2
10. HPQQH  12.2
11. DHPMK  13.3
12. IHPQT  13.6
13. HPQYQ  15.5
